Experimental data reported in paper PMC4116524, “A virtual screen identified C96 as a novel inhibitor of phosphatidylinositol 3-kinase that displays potent preclinical activity against multiple myeloma in vitro and in vivo” (Oncotarget, 2014).
Entries after “also recorded” stand apart in the source; their conditions may differ.

Columns and labels:
[1] = test system: phosphorylation of mTOR, p70S6K and 4E-BP1 in LP1, OPM2 and JJN3 cells; experiment: mTOR signaling pathway, immunoblotting; type: cell-based; conditions: LP1, OPM2, JJN3, 24 hrs, concentration-dependent
Procedure: Figure 2 C96 inhibits AKT and mTOR signaling (A) LP1 and OPM2 were starved overnight, then treated with C96 at the indicated concentrations, or 100 μM of S14161 for 2 hrs, followed by IGF-1 (100 ng/mL) for 15 min. Cells were collected for the analysis of the expression of p-AKT and total AKT (T-AKT) by immunoblotting. […]
The PI3K/AKT plays a critical role in regulating a myriad of downstream effectors, of which the most prominent ones are mTOR/p70S6K/4E-BP1. […] To examine whether PI3K inhibition led to deregulation of the mTOR signaling pathway, we further measured the changes of mTOR, p70S6K and 4E-BP1 in MM cell lines LP1, OPM2, and JJN3 in the presence of C96.
Cells were treated with or without C96 for 24 hrs before being applied to lysate preparation in a lysis buffer (50 mM Tris-HCI, pH 7.4, 1% NP-40, 0.5% Na-deoxycholate, and 0.1% SDS, 150 mM NaCl, 2 mM EDTA, 2 mM Na3VO4, and 5 mM NaF). […] All immunoblotting signals were further analyzed with Quality One Quality One software (Bio-Rad, Berkeley, CA, USA).

[2] = test system: ERK phosphorylation in LP1 and JJN3 cells; experiment: ERK phosphorylation, immunoblotting; type: cell-based; conditions: increasing concentrations, 24 hrs
Procedure: To elucidate this specificity, we first evaluated its effects on IGF-1R because IGF-1R as a receptor tyrosine kinase activates PI3K in the presence of IGF-1. To exclude the potential effects of C96 on IGF-1 signaling, LP1 and JJN3 cells were starved overnight followed by C96 or S14161 treatment for 2 hrs, and IGF-1 stimulation for 15 min. As expected, IGF-1 triggered AKT phosphorylation but it was suppressed by both C96 and the proven PI3K inhibitor S14161 without affecting total AKT expression (Figure 3A). […] Next, we evaluated other kinases including non-receptor kinase c-Src and a PI3K parallel kinase ERK which transduces external cellular signals. Both LP1 and JJN3 cells were treated with C96 at increasing concentrations that inhibited AKT and mTOR activation (Figure 2C).
Figure 3 C96 inhibits AKT but not IGF-1R, ERK or c-Src kinase activation (A) LP1 and JJN3 cells were starved overnight, then treated with 100 (μM of C96 or S14161 for 2 hrs, followed by IGF-1 (100 ng/mL) for 15 min. After incubation, cells were harvested and the expression of p-AKT, p-IGF-1R, total AKT (T-AKT), and IGF-1R proteins were detected by immunoblotting. (B) LP1 and JJN3 were treated with C96 at indicated concentrations for 24 hrs followed by immunoblotting assay for the expression of p-Src, c-Src, p-ERK, and ERK. GAPDH was used as a loading control. […]

[3] = test system: JJN3 xenograft; experiment: Myeloma xenograft study; type: in vivo, nude mice
Procedure: To further evaluate the anti-myeloma efficacy of C96 in vivo, a human multiple myeloma xenograft model was established by subcutaneous injection of JJN3 into nude mice. When these tumors were palpable, mice were randomly divided into two groups (n=5) and one of them were orally administrated C96 (100 mg/kg body weight, 1/10 of the oral LD50), the other one were given the same volume of vehicle on a daily base for continued 16 days. Tumor sizes and body weight were monitored every other day. […] In contrast, the tumors in the vehicle group grew in a steady rate.
Figure 7 C96 delays myeloma tumor growth in a xenograft mouse model (A) JJN3 cells were injected subcutaneously into nude mice with a density of 30 million cells/site/mouse. When tumors were palpable, mice (n=5/group) were orally given C96 (100 mg/kg body weight) in PBS containing 10% Tween 80 and 10% DMSO daily for continuous 16 days. Tumor volumes were monitored every other day. (B) Mouse body weight was monitored every other day. (C) At the end of the experiment, tumor samples from each group were subjected to immunoblotting analysis for the expression levels of p-AKT, T-AKT, p-mTOR and mTOR with specific antibodies. GAPDH was used as a loading control.
JJN3 cells (30 million cells/injection) were inoculated s.c. into the right flanks of nude mice (5-6 weeks old, female, Shanghai Slac Laboratory Animal Co. Ltd., Shanghai). When tumors were palpable, mice were randomly divided into two groups (n=5). One group was orally administrated C96 (100 mg/kg body weight, or 1/10 oral LD50) dissolved in PBS containing 10% Tween 80 and DMSO daily for continued 16 days, another group was received the vehicle only. Tumor sizes were measured every other day with a caliper and calculated according to the formula (V=0.5236a²b, where a is the smallest superficial diameter and b is the largest superficial diameter). Body weight of each mouse was also monitored. At the end of the experiment, mice were sacrificed in a CO2 chamber containing dry ice. Tumor tissues were then excised, weighed, and snap-frozen in liquid nitrogen for further studies. To examine protein expression, tumor tissues were minced and ultrasonicated in the lysis buffer to extract proteins, which were further applied for immunoblotting analyses using specific antibodies against AKT, p-AKT, p-mTOR, mTOR, and GAPDH. This xenograft study was carried out in accordance with The Code of Ethics of the World Medical Association (Declaration of Helsinki) for experiments in animals and it was approved by the Animal Ethics and Welfare Review Board of Soochow University.

O=C1NC(=O)C(=CC=Cc2cccs2)C(=O)N1 [C96, 5-(3-(2-thienyl)-2-propen-1-ylidene)-2,4,6(1H,3H,5H)-pyrimidinetrione]
phosphorylation levels of mTOR, p70S6K and 4E-BP1 [1]: downregulated | phosphorylation level of ERK [2]: did not decrease | effects on body weight ([3]; 100 mg/kg oral daily, 16-day treatment): minimal effects | gross toxicity ([3]; 100 mg/kg oral daily, 16 days): no gross toxicity | tumor growth ([3]; 100 mg/kg oral daily, 16 days): almost fully suppressed tumor growth; also recorded: delayed MM tumor growth | tumor growth suppression ([3]; 100 mg/kg oral daily, within 16 days): more than 90% | AKT and mTOR phosphorylation in myeloma tumor tissues ([3]; tumors excised at end of experiment, immunoblotting): decreased
